From BindingDB's records for doi:10.1016/s0960-894x(01)00765-x (Bristol Myers Squibb, 2002) come the findings set out here.

The target of this assay is T1, Neuropeptide Y receptor type 1 (Homo sapiens, UniProt P25929).
T1 sequence (P25929 whole entry): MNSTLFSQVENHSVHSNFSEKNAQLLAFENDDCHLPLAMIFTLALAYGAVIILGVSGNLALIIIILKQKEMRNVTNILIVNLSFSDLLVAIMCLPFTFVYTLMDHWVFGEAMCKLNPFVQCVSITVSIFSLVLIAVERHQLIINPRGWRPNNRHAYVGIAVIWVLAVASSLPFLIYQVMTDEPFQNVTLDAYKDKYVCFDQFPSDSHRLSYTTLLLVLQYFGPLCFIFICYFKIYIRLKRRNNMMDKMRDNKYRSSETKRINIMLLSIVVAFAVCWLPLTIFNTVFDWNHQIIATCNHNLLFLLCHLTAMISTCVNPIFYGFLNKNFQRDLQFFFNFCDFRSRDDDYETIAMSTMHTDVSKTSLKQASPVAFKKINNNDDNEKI
Kind of assay: ChEBML_143683. From the text:
Binding affinity against Neuropeptide Y receptor type 1 using I-PYY as a radioligand in human neuroblastoma SK-N-MC cells

In the case of `COC(=O)C1=C(C)N=C(C)C(C(=O)OC)N1c1cccc(NC(=S)NCCCN2CCC(C(C)(C)C)CC2)c1` (configuration not stated) [1-(3-{3-[3-(4-tert-Butyl-piperidin-1-yl)-propyl]-thioureido}-phenyl)-3,5-dimethyl-1,4-dihydro-pyrazine-2,6-dicarboxylic acid dimethyl ester], the IC50 (as a rule, the concentration that gives 50% inhibition) is more than 1000 nM.
For `COC(=O)C1=C(C)N=C(C)C(C(=O)OC)N1c1cccc(NC(=S)NCCCN2CCN(C3CCCCC3)CC2)c1` (configuration not stated) [1-(3-{3-[3-(4-Cyclohexyl-piperazin-1-yl)-propyl]-thioureido}-phenyl)-3,5-dimethyl-1,4-dihydro-pyrazine-2,6-dicarboxylic acid dimethyl ester], the IC50 was more than 1000 nM.
